Values of other authors in patent publication US20050158845A1 (priority 2001, published 2005).

System: human hepatocyte and neuroblastoma cells
Conditions: cited from earlier work

SMILES	effects on hepatocyte and neuroblastoma cell metabolism
CCOP(=O)(OCC)Oc1ccc([N+](=O)[O-])cc1 [paraoxon]	opposite effects
CCOP(=S)(OCC)Oc1ccc([N+](=O)[O-])cc1 [parathion]	opposite effects
